The values that follow come from patent publication US10793568B2, “Hormone receptor modulators for treating metabolic conditions and disorders” (ARDELYX, INC., priority 2016, dated 2020).

Like-named read-outs stand apart in the source and are kept apart here.

Experiment [1] concerns the target human Farnesoid X receptor ligand-binding domain/Gal4 DNA binding domain chimera (Homo sapiens (Human), UniProt Q96RI1). The experiment is described as follows: Cell-based assay of FXR activation (FXR-UAS-bla HEK 293T beta-lactamase reporter). As to conditions: cellular FXR beta-lactamase reporter assay; for Emax: HEK-293T, extent of activation relative to GW4064, read-out: % Efficacy; for EC50: FXR-UAS-bla HEK 293T cells, 16 h, pEC50 = -log EC50. An outline of the steps:
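HEK 293T cells stably expressing a Gal4-fused human FXR LBD and a UAS-driven beta-lactamase reporter were incubated with serially diluted compounds for 16 h at 37 °C in phenol red-free DMEM with 2% charcoal-stripped FBS. CCF4 FRET read-out: excitation 409 nm, emission 447 nm. pEC50 comes from a 3-parameter logistic fit, and efficacy is given as % of GW4064.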
A general note: Reporter assays use an easily measured gene product as a stand-in for the process of interest.

Experiment [2] has as its target ligand binding domain of human FXR (Homo sapiens (Human), UniProt Q96RI1). The experiment is described as follows: FXR ligand binding assay (LanthaScreen TR-FRET, SRC2-2 peptide recruitment). As to conditions: for Emax: read-out: % Efficacy. (In general: TR-FRET usually uses a lanthanide donor and a delayed reading to cut background.)
[3] abbreviates: -log EC50, concentration required to produce 50% activation.
The mark [4] stands for this setting: extent of activation relative to GW4064.

Chain of human Farnesoid X receptor ligand-binding domain/Gal4 DNA binding domain chimera (Q96RI1 262-486, change not shown): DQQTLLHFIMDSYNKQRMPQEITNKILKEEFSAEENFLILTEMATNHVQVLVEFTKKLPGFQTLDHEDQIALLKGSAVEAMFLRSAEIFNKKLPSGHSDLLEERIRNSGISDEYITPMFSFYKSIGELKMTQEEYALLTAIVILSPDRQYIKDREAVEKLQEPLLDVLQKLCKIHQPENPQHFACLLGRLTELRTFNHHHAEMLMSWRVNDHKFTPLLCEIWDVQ
Chain of human Farnesoid X receptor ligand-binding domain/Gal4 DNA binding domain chimera (P04386 1-147 partner): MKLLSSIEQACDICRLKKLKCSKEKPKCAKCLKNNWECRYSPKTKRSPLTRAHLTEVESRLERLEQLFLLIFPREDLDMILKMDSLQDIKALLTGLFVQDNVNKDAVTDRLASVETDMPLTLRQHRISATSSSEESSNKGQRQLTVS
Chain of ligand binding domain of human FXR (Q96RI1 262-486): as the sequence (Q96RI1 262-486, change not shown) above

Take `O=C(O)c1cc(C2CCCC2)c2nc(N3C[C@@H]4C[C@H]3C[C@H]4OCc3c(-c4c(Cl)cccc4Cl)noc3C3CC3)sc2c1` [Compound I-250, 4-cyclopentyl-2-[(1S,4S,5R)-5-{[5-cyclopropyl-3-(2,6-dichlorophenyl)-1,2-oxazol-4-yl]methoxy}-2-azabicyclo[2.2.1]heptan-2-yl]-1,3-benzothiazole-6-carboxylic Acid]: in experiment [1], the Emax came to 114% and the EC50 was 0.501 nM. This compound came in with a pEC50 in experiment [2] (setting [3]) of 7.8. Moreover, in experiment [2] (setting [4]), the Emax worked out at 128%.

Turning to `O=C(NCCS(=O)(=O)O)c1ccc(N2C[C@@H]3C[C@H]2C[C@H]3OCc2c(-c3c(Cl)cccc3Cl)noc2C2CC2)cc1F` [Compound I-168, 2-({4-[(1S,4S,5R)-5-{[5-cyclopropyl-3-(2,6-dichlorophenyl)-1,2-oxazol-4-yl]methoxy}-2-azabicyclo[2.2.1]heptan-2-yl]-2-fluorophenyl}formamido)ethane-1-sulfonic Acid], the results for the Emax in experiment [1] and in experiment [2] (setting [4]) were 107% and 164%, respectively. This compound also gave an EC50 in experiment [1] of 100 nM. In addition, the pEC50 in experiment [2] (setting [3]) is 8.6.

In the case of `CC(C)c1cccc(F)c1-c1noc(C2CC2)c1CO[C@@H]1C[C@@H]2C[C@H]1C(=O)N2c1ccc(C(=O)O)cc1` [Compound I-310, 4-[(1S,4R,5R)-5-({5-cyclopropyl-3-[2-fluoro-6-(propan-2-yl)phenyl]-1,2-oxazol-4-yl}methoxy)-3-oxo-2-azabicyclo[2.2.1]heptan-2-yl]benzoic Acid], the Emax was found to be 115% in experiment [1] and 155% in experiment [2] (setting [4]). Also, the EC50 in experiment [1] is 7.94 nM. Moreover, the pEC50 in experiment [2] (setting [3]) was 7.6.

As to `O=C(O)c1cc(C2CC3(CCOCC3)C2)c2nc(N3C[C@@H]4C[C@H]3C[C@H]4OCc3c(-c4c(Cl)cccc4Cl)noc3C3CC3)sc2c1` [Compound I-257, 2-[(1S,4S,5R)-5-{[5-cyclopropyl-3-(2,6-dichlorophenyl)-1,2-oxazol-4-yl]methoxy}-2-azabicyclo[2.2.1]heptan-2-yl]-4-{7-oxaspiro[3.5]nonan-2-yl}-1,3-benzothiazole-6-carboxylic Acid], in experiment [1], the Emax came to 108% and the EC50 is 0.1 nM. For the same compound, in experiment [2] (setting [3]), the pEC50 is 8.6. Moreover, the Emax in experiment [2] (setting [4]) came out at 148%.

For the compound `N#Cc1cc(CCC(=O)O)ccc1N1C[C@@H]2C[C@H]1C[C@H]2OCc1c(-c2c(Cl)cccc2Cl)noc1C1CC1` [Compound I-158, 3-{3-cyano-4-[(1S,4S,5R)-5-{[5-cyclopropyl-3-(2,6-dichlorophenyl)-1,2-oxazol-4-yl]methoxy}-2-azabicyclo[2.2.1]heptan-2-yl]phenyl}propanoic Acid], in experiment [1], the Emax turned out to be 104% and the EC50 is 6.31 nM. In experiment [2] (setting [3]), this compound registered a pEC50 of 7.6. The Emax in experiment [2] (setting [4]) was 126%.

In the case of `CCCS(=O)(=O)NC(=O)c1ccc(N2C[C@@H]3C[C@H]2C[C@H]3OCc2c(-c3c(Cl)cccc3Cl)noc2C2(F)CC2)nc1` [Compound I-208, 6-[(1S,4S,5R)-5-[[3-(2,6-dichlorophenyl)-5-(1 I-fluorocyclopropyl)-1,2-oxazol-4-yl]methoxy]-2-azabicyclo[2.2.1]heptan-2-yl]-N-(propane-1-sulfonyl)pyridine-3-carboxamide], the Emax in experiment [1] is 104%; in experiment [2] (setting [4]), 166%. The EC50 in experiment [1] is 5.01 nM; in experiment [2] (setting [3]), 10 nM.

Regarding `O=C(NS(=O)(=O)C1CCOCC1)c1ccc(N2C(=O)[C@@H]3C[C@H]2C[C@H]3OCc2c(-c3c(Cl)cccc3Cl)noc2C2CC2)cc1F` [Compound I-332, 4-((1S,4R,5R)-5-((5-cyclopropyl-3-(2,6-dichlorophenyl)isoxazol-4-yl)methoxy)-3-oxo-2-azabicyclo[2.2.1]heptan-2-yl)-2-fluoro-N-((tetrahydro-2H-pyran-4-yl)sulfonyl)benzamide], in experiment [1], the Emax came to 100% and the EC50 is 0.316 nM. The pEC50 in experiment [2] (setting [3]) was 8.8. Besides, the Emax in experiment [2] (setting [4]) is 150%.

With `Cc1cccc(Cl)c1-c1noc(C2(F)CC2)c1CO[C@@H]1C[C@@H]2C[C@H]1CN2c1ccc(C(=O)O)c(F)c1` [Compound I-124, 4-[(1S,4S,5R)-5-{[3-(2-chloro-6-methylphenyl)-5-(1-fluorocyclopropyl)-1,2-oxazol-4-yl]methoxy}-2-azabicyclo[2.2.1]heptan-2-yl]-2-fluorobenzoic Acid], in experiment [1], the Emax worked out at 105% and the EC50 was 3.98 nM. The compound further showed a pEC50 in experiment [2] (setting [3]) of 9.7. The Emax in experiment [2] came out at 143%.

As to `O=C(NS(=O)(=O)CCC1CCOC1)c1ccc(N2C(=O)[C@@H]3C[C@H]2C[C@H]3OCc2c(-c3c(Cl)cccc3Cl)noc2C2CC2)cc1F` (stereo partly drawn) [Compound I-336, 4-((1S,4R,5R)-5-((5-cyclopropyl-3-(2,6-dichlorophenyl)isoxazol-4-yl)methoxy)-3-oxo-2-azabicyclo[2.2.1]heptan-2-yl)-2-fluoro-N-((2-(tetrahydrofuran-3-yl)ethyl)sulfonyl)benzamide], in experiment [1], the Emax came out at 125% and the EC50 was 2.51 nM. Besides, the pEC50 in experiment [2] (setting [3]) was 8.6. For the same compound, the Emax in experiment [2] (setting [4]) came to 182%.

Take `O=C(O)c1cc(OC(F)(F)F)c2nc(N3C[C@@H]4C[C@H]3C[C@H]4OC(=O)c3c(-c4c(Cl)cccc4Cl)noc3C3CC3)sc2c1` [Compound I-6]: in experiment [1], the Emax came out at 112% and the EC50 was 3.98 nM. In experiment [2] (setting [3]), this compound had a pEC50 of 7.7. Besides, the Emax in experiment [2] (setting [4]) stood at 173%.

For `O=C(O)c1cc(OC2CC2)c2nc(N3C[C@@H]4C[C@H]3C[C@H]4OCc3c(C4CCC5(CC4)CC5)noc3C3CC3)sc2c1` [Compound I-278, 4-cyclopropoxy-2-((1S,4S,5R)-5-((5-cyclopropyl-3-(spiro[2.5]octan-6-yl)isoxazol-4-yl)methoxy)-2-azabicyclo[2.2.1]heptan-2-yl)benzo[d]thiazole-6-carboxylic acid], the Emax stood at 98% in experiment [1] and 96% in experiment [2] (setting [4]). Moreover, in experiment [1], the EC50 was 10 nM. This compound came in with a pEC50 in experiment [2] (setting [3]) of 7.7.

In the case of `O=C(O)CCc1ccc(N2C(=O)[C@@H]3C[C@H]2C[C@H]3OCc2c(-c3c(Cl)cccc3Cl)noc2C2CC2)c(F)c1` [Compound I-304, 3-{4-[(1S,4R,5R)-5-{[5-cyclopropyl-3-(2,6-dichlorophenyl)-1,2-oxazol-4-yl]methoxy}-3-oxo-2-azabicyclo[2.2.1]heptan-2-yl]-3-fluorophenyl}propanoic Acid], in experiment [1], the Emax is 107% and the EC50 was 100 nM. This compound yielded a pEC50 in experiment [2] (setting [3]) of 6.6. The Emax in experiment [2] (setting [4]) is 118%.

As for `CCCS(=O)(=O)NC(=O)c1ccc(N2C[C@@H]3C[C@H]2C[C@H]3OCc2c(-c3c(Cl)cccc3Cl)noc2C2CC2)cc1F` [Compound I-194, 4-((1S,4S,5R)-5-((5-cyclopropyl-3-(2,6-dichlorophenyl)isoxazol-4-yl)methoxy)-2-azabicyclo[2.2.1]heptan-2-yl)-2-fluoro-N-(propylsulfonyl)benzamide], in experiment [1], the Emax stood at 104% and the EC50 was 0.2 nM. In addition, the pEC50 in experiment [2] (setting [3]) stood at 9. Moreover, the Emax in experiment [2] (setting [4]) was determined as 141%.

For the compound `O=C(O)c1ccc(N2C[C@@H]3C[C@H]2C[C@H]3OCc2c(-c3ccccc3C(F)(F)F)noc2C2CC2)cc1` [Compound I-120, 4-[(1S,4S,5R)-5-({5-cyclopropyl-3-[2-(trifluoromethyl)phenyl]-1,2-oxazol-4-yl}methoxy)-2-azabicyclo[2.2.1]heptan-2-yl]benzoic Acid], in experiment [1], the Emax came to 112% and the EC50 is 2 nM. The compound further yielded a pEC50 in experiment [2] (setting [3]) of 8. Moreover, in experiment [2] (setting [4]), the Emax worked out at 188%.

In the case of `O=C(O)c1cc([C@H]2CCOC2)c2nc(N3C[C@@H]4C[C@H]3C[C@H]4OCc3c(-c4c(F)cccc4Cl)noc3C3CC3)sc2c1` [Compound I-265], the results for the Emax in experiment [1] and in experiment [2] (setting [4]) were 110% and 146%, respectively. Moreover, the EC50 in experiment [1] was 0.501 nM. Moreover, the pEC50 in experiment [2] (setting [3]) was determined as 8.4.

With `O=C(NS(=O)(=O)C1CCOC1)c1ccc(N2C(=O)[C@@H]3C[C@H]2C[C@H]3OCc2c(-c3c(Cl)cccc3Cl)noc2C2CC2)cc1F` (stereo partly drawn) [Compound I-334, 4-((1S,4R,5R)-5-((5-cyclopropyl-3-(2,6-dichlorophenyl)isoxazol-4-yl)methoxy)-3-oxo-2-azabicyclo[2.2.1]heptan-2-yl)-2-fluoro-N-((tetrahydrofuran-3-yl)sulfonyl)benzamide], the values for the Emax in experiment [1] and in experiment [2] (setting [4]) were 104% and 180%, respectively. For the same compound, the EC50 in experiment [1] was 1 nM. Besides, in experiment [2] (setting [3]), the pEC50 turned out to be 9.

Regarding `O=P(O)(O)Cc1ccc(N2C[C@@H]3C[C@H]2C[C@H]3OCc2c(-c3c(Cl)cccc3Cl)noc2C2CC2)cc1` [Compound I-176, ({4-[(1S,4S,5R)-5-{[5-cyclopropyl-3-(2,6-dichlorophenyl)-1,2-oxazol-4-yl]methoxy}-2-azabicyclo[2.2.1]heptan-2-yl]phenyl}methyl)phosphonic Acid], in experiment [1], the Emax came out at 92% and the EC50 was 631 nM. Besides, the pEC50 in experiment [2] (setting [3]) is 7.5. Moreover, the Emax in experiment [2] is 120%.

Turning to `O=C(O)C1CC(c2ccc(N3C[C@@H]4C[C@H]3C[C@H]4OCc3c(-c4c(Cl)cccc4Cl)noc3C3CC3)cc2)C1` (stereo partly drawn) [Compound I-151, 3-{4-[(1S,4S,5R)-5-{[5-cyclopropyl-3-(2,6-dichlorophenyl)-1,2-oxazol-4-yl]methoxy}-2-azabicyclo[2.2.1]heptan-2-yl]phenyl}cyclobutane-1-carboxylic Acid], the Emax came out at 106% in experiment [1] and 134% in experiment [2] (setting [4]). In experiment [1], this compound had an EC50 of 25.1 nM. For the same compound, the pEC50 in experiment [2] (setting [3]) was found to be 8.6.

One may read the pEC50 as the EC50 on a negative log10 scale, so that one unit is a factor of ten. Read a high pEC50 as a small EC50.
